# Results taken from ChEMBL document CHEMBL3885861, “Open TG-GATES”.
# Species: Rattus norvegicus
# Experiment: Open TG-GATES - Regimen: Single
# Format: toxicity, organism-based, Sprague-Dawley
# Design: regimen Single, gender Male, age 6 weeks
# Conditions: in vivo, iv, 1000 mg/kg, route intravenous injection, dose level Middle; for APTT / Bas / Eos / Fbg / Hb / Ht / Lym / MCH / MCHC / MCV / Mono / PT / Plat / RBC / Ret / WBC: tissue Blood; for KIDNEY_L / KIDNEY_R / KIDNEY_TOTAL: tissue Kidney; for LIVER: tissue Liver; for ALP / ALT / AST / BUN / CRE / Ca / Cl / DBIL / GLC / IP / K / LDH / Na / PL / RALB / TBIL / TC / TG / TP / gamma-GTP: tissue Plasma
smiles,measurement,setting,value
CC(=O)OCC1=C(C(=O)O)N2C(=O)[C@@H](NC(=O)Cc3cccs3)[C@H]2SC1 [CEPHALOTHIN],TERMINAL_BW,3 h,212.6 g
same,APTT,3 h,22.3 s
same,Bas,3 h,0%
same,Eos,3 h,0.4%
same,Fbg,3 h,266.6 mg/dL
same,Hb,3 h,13.2 g/dL
same,Ht,3 h,38.5%
same,Lym,3 h,72%
same,MCH,3 h,21.3 pg
same,MCHC,3 h,34.3%
same,MCV,3 h,62 fL
same,Mono,3 h,3.2%
same,PT,3 h,16.3 s
same,Plat,3 h,116.5 x10_4/uL
same,RBC,3 h,622 x10_4/ul
same,Ret,3 h,5.8%
same,WBC,3 h,76.3 x10_2/uL
same,KIDNEY_L,3 h,0.9 g
same,KIDNEY_R,3 h,0.9 g
same,KIDNEY_TOTAL,3 h,1.9 g
same,LIVER,3 h,10 g
same,ALP,3 h,1462.8 IU/L
same,ALT,3 h,52.4 IU/L
same,AST,3 h,101 IU/L
same,BUN,3 h,12.6 mg/dL
same,CRE,3 h,0.2 mg/dL
same,Ca,3 h,10.8 mg/dL
same,Cl,3 h,105.2 meq/L
same,DBIL,3 h,0 mg/dL
same,GLC,3 h,173 mg/dL
same,IP,3 h,8.5 mg/dL
same,K,3 h,4.3 meq/L
same,LDH,3 h,207.6 IU/L
same,Na,3 h,141.8 meq/L
same,PL,3 h,141.2 mg/dL
same,RALB,3 h,2.9 g/dL
same,TBIL,3 h,0.02 mg/dL
same,TC,3 h,68.8 mg/dL
same,TG,3 h,132.8 mg/dL
same,TP,3 h,5.2 g/dL
same,gamma-GTP,3 h,1.2 IU/L
same,TERMINAL_BW,6 h,218.3 g
same,APTT,6 h,24.1 s
same,Bas,6 h,0%
same,Eos,6 h,1%
same,Fbg,6 h,281.6 mg/dL
same,Hb,6 h,13.1 g/dL
same,Ht,6 h,38.6%
same,Lym,6 h,76.4%
same,MCH,6 h,21.1 pg
same,MCHC,6 h,34%
same,MCV,6 h,62.1 fL
same,Mono,6 h,2.4%
same,PT,6 h,16.2 s
same,Plat,6 h,135.7 x10_4/uL
same,RBC,6 h,622 x10_4/ul
same,Ret,6 h,6.3%
same,WBC,6 h,78.7 x10_2/uL
same,KIDNEY_L,6 h,1 g
same,KIDNEY_R,6 h,1 g
same,KIDNEY_TOTAL,6 h,1.9 g
same,LIVER,6 h,9.4 g
same,ALP,6 h,1381.4 IU/L
same,ALT,6 h,39.2 IU/L
same,AST,6 h,91.4 IU/L
same,BUN,6 h,12.8 mg/dL
same,CRE,6 h,0.2 mg/dL
same,Ca,6 h,10.5 mg/dL
same,Cl,6 h,106.2 meq/L
same,DBIL,6 h,0.002 mg/dL
same,GLC,6 h,175.4 mg/dL
same,IP,6 h,8.9 mg/dL
same,K,6 h,4.5 meq/L
same,LDH,6 h,176 IU/L
same,Na,6 h,141.4 meq/L
same,PL,6 h,127.8 mg/dL
same,RALB,6 h,2.8 g/dL
same,TBIL,6 h,0.018 mg/dL
same,TC,6 h,61.6 mg/dL
same,TG,6 h,115.2 mg/dL
same,TP,6 h,5.2 g/dL
same,gamma-GTP,6 h,1.2 IU/L
same,TERMINAL_BW,9 h,213.7 g
same,APTT,9 h,22.5 s
same,Bas,9 h,0%
same,Eos,9 h,1%
same,Fbg,9 h,293.2 mg/dL
same,Hb,9 h,13 g/dL
same,Ht,9 h,38.2%
same,Lym,9 h,73.4%
same,MCH,9 h,20.9 pg
same,MCHC,9 h,34%
same,MCV,9 h,61.6 fL
same,Mono,9 h,2.2%
same,PT,9 h,16.1 s
same,Plat,9 h,128.3 x10_4/uL
same,RBC,9 h,620.4 x10_4/ul
same,Ret,9 h,6.8%
same,WBC,9 h,74.6 x10_2/uL
same,KIDNEY_L,9 h,1 g
same,KIDNEY_R,9 h,1 g
same,KIDNEY_TOTAL,9 h,1.9 g
same,LIVER,9 h,8.9 g
same,ALP,9 h,1218.6 IU/L
same,ALT,9 h,33.2 IU/L
same,AST,9 h,75.4 IU/L
same,BUN,9 h,11 mg/dL
same,CRE,9 h,0.2 mg/dL
same,Ca,9 h,10.5 mg/dL
same,Cl,9 h,107.2 meq/L
same,DBIL,9 h,0 mg/dL
same,GLC,9 h,176.6 mg/dL
same,IP,9 h,9.1 mg/dL
same,K,9 h,4.5 meq/L
same,LDH,9 h,150 IU/L
same,Na,9 h,141.6 meq/L
same,PL,9 h,138.8 mg/dL
same,RALB,9 h,2.9 g/dL
same,TBIL,9 h,0.018 mg/dL
same,TC,9 h,72 mg/dL
same,TG,9 h,90.2 mg/dL
same,TP,9 h,5.4 g/dL
same,gamma-GTP,9 h,1.6 IU/L
same,TERMINAL_BW,24 h,219.2 g
same,APTT,24 h,22.5 s
same,Bas,24 h,0%
same,Eos,24 h,1%
same,Fbg,24 h,309.8 mg/dL
same,Hb,24 h,13.5 g/dL
same,Ht,24 h,39.4%
same,Lym,24 h,81.4%
same,MCH,24 h,20.7 pg
same,MCHC,24 h,34.3%
same,MCV,24 h,60.5 fL
same,Mono,24 h,2.4%
same,PT,24 h,16.3 s
same,Plat,24 h,124.3 x10_4/uL
same,RBC,24 h,651.8 x10_4/ul
same,Ret,24 h,5.1%
same,WBC,24 h,73.5 x10_2/uL
same,KIDNEY_L,24 h,1 g
same,KIDNEY_R,24 h,1 g
same,KIDNEY_TOTAL,24 h,1.9 g
same,LIVER,24 h,9.5 g
same,ALP,24 h,1371.4 IU/L
same,ALT,24 h,48 IU/L
same,AST,24 h,76.8 IU/L
same,BUN,24 h,15.8 mg/dL
same,CRE,24 h,0.2 mg/dL
same,Ca,24 h,10.6 mg/dL
same,Cl,24 h,106.8 meq/L
same,DBIL,24 h,0 mg/dL
same,GLC,24 h,190.8 mg/dL
same,IP,24 h,6.7 mg/dL
same,K,24 h,4.2 meq/L
same,LDH,24 h,146.8 IU/L
same,Na,24 h,143 meq/L
same,PL,24 h,148.8 mg/dL
same,RALB,24 h,3.1 g/dL
same,TBIL,24 h,0.012 mg/dL
same,TC,24 h,80.6 mg/dL
same,TG,24 h,79.4 mg/dL
same,TP,24 h,5.7 g/dL
same,gamma-GTP,24 h,1.6 IU/L
